Bridge positions count the residues as written; N and C are the ends. Square brackets hold non-standard residues; d marks the D form. Peptide text beside a SMILES is read from it. Dab = NCC[C@H](N)C(=O)O; Dap = NC[C@H](N)C(=O)O

The target of the test is T1, CLR fused to EYFP and RAMP2 fused to ECFP (Homo sapiens, UniProt O60895+Q16602).
T1 construct: EYFP; ECFP; expressed in transfected cells; host or cells: HEK-293 cells, transient co-transfection
T1 sequence (Q16602 23-461): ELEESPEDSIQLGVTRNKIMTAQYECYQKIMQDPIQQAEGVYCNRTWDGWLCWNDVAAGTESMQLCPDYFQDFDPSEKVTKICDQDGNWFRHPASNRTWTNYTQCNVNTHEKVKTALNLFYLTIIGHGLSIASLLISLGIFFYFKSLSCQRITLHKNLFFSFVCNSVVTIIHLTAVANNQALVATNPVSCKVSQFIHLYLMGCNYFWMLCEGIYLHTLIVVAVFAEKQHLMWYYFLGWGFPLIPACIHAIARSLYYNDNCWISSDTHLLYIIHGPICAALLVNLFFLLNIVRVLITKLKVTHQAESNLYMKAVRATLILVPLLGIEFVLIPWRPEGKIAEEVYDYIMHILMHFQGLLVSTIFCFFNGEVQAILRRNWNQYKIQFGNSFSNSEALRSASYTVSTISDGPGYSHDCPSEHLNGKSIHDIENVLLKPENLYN
T1 sequence (O60895 43-175): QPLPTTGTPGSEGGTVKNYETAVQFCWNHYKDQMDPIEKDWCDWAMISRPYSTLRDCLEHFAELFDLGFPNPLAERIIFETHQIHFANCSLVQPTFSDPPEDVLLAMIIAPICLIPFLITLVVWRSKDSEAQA
As to the kind of experiment: cAMP assay (CRE luciferase reporter, HEK-293 cells transiently co-transfected with CLR and RAMP2). Type of test: cell-based. As to conditions: Table 2, cAMP assay; HEK-293, CLR/RAMP2, CRE luciferase, 3 h stimulation, normalized to [G^14]ADM(14-52). As for the experimental part:
HEK-293 cells (human embryonic kidney cells) were cultured in Ham's F-12/DMEM (1/1; v/v) containing 15% FCS under humidified atmosphere at 37° C. and 5% CO2 in 75 cm^2 cell culture flasks.
Cells were cultured in 75 cm^2 flasks to 70-80% confluency. 45 μl Metafectene® Pro was diluted in 900 μl Ham's F-12/DMEM (1/1; v/v) and incubated for 20 min at room temperature. 9000 ng plasmid containing DNA of CLR fused to EYFP and 3000 ng plasmid containing DNA of RAMP2 fused to ECFP were dissolved in 900 μl Ham's F-12/DMEM (1/1; v/v). The plasmid solution was mixed with the Metafectene® Pro solution and incubated for 25 min at room temperature. Medium was removed from the cells and replaced by 6 ml Ham's F-12/DMEM (1/1; v/v) containing 15% FCS. After addition of transfection solution the cells were incubated for 3 h under humidified atmosphere at 37° C. and 5% CO2.
For the second transfection 45 μl Metafectene® Pro was diluted in 900 μl Ham's F-12/DMEM (1/1; v/v) and incubated for 20 min at room temperature. 12000 ng of pGL4.29[luc2P/CRE/Hygro] plasmid containing DNA for the luciferase reporter gene luc2P (with CRE promotor region) were dissolved in 900 μl Ham's F-12/DMEM (1/1; v/v). The plasmid solution was mixed with the Metafectene® Pro solution and incubated for 25 min at room temperature. Medium was removed from the cells and replaced by 6 ml Ham's F-12/DMEM (1/1; v/v) containing 15% FCS. After addition of transfection solution the cells were incubated under humidified atmosphere at 37° C. and 5% CO2 over night.
For the coating of 96-well-plates 50 μl of a Poly-D-Lysine solution (1 ml stock solution of Poly-D-Lysin-hydrobromid/10 ml DPBS) were pipetted in each well and incubated for 40 min. After removal of the Poly-D-Lysine each well was washed with 50 μl DPBS. Transiently transfected cells were detached from the cell culture flask by removal of the medium, twofold washing with 5 m1 DPBS and resuspending in 13 ml Ham's F-12/DMEM (1/1; v/v) containing 15% FCS. 90000 to 120000 cells in 150 μl Ham's F-12/DMEM (1/1; v/v) containing 15% FCS were seeded per well and the plates were incubated under humidified atmosphere at 37° C. and 5% CO2 over night.
For each ligand a serial dilution giving eight different concentrations was prepared using Ham's F-12/DMEM (1/1; v/v). Before stimulation the medium on the cells was replaced by 100 μl Ham's F-12/DMEM (1/1; v/v) and the plates were incubated for 1 h under humidified atmosphere at 37° C. and 5% CO2. For stimulation the medium was removed again and the cells were incubated for 3 h in 80 μl of ligand-solution under humidified atmosphere at 37° C. and 5% CO2. In addition 80 μl of a 5 μM forskolin solution (in Ham's F-12/DMEM (1/1; v/v)) was used as a positive control and 80 μl of Ham's F-12/DMEM (1/1; v/v) as a negative control. Each concentration and the controls were tested as triplicates.
After 3 h of stimulation, the solutions were removed and the cells were washed with 50 μl of Ham's F-12/DMEM (1/1; v/v) per well. After 10 min incubation in 30 μl of Ham's F-12/DMEM (1/1; v/v) at room temperature, 30 μl of luciferase-solution (ONE-Glo™ Luciferase Assay System) was added and the luminescence was directly measured using an Infinite M200 (Tecan).
Data analysis of the luminescence measurement was carried out with GraphPad Prism 5. Therefore the measured luminescence values of each plate were first corrected on the base of the respective average of forskolin stimulation. Afterwards they were normalized to [G^14]ADM(14-52) which was used as standard peptide in every assay. After correction and normalization data was analysed using non-linear regression giving dose-response curves for each tested ligand.
For orientation: Changes in cAMP serve as a functional read-out for many G protein-coupled receptors.
As to `CC[C@H](C)[C@H](NC(=O)[C@H](CCC(N)=O)NC(=O)[C@H](Cc1c[nH]cn1)NC(=O)[C@H](C)NC(=O)[C@H](CC(C)C)NC(=O)[C@H](CCCCN)NC(=O)[C@H](CCC(N)=O)NC(=O)[C@@H](NC(=O)[C@@H](NC(=O)[C@@H]1CCCCNC(=O)CC[C@H](NC(=O)CNC(=O)CN)C(=O)N[C@@H](CCCNC(=N)N)C(=O)N[C@@H](Cc2ccccc2)C(=O)NCC(=O)N[C@@H]([C@@H](C)O)C(=O)N1)[C@@H](C)O)C(C)C)C(=O)N[C@@H](Cc1ccc(O)cc1)C(=O)N[C@@H](CCC(N)=O)C(=O)N[C@@H](Cc1ccccc1)C(=O)N[C@H](C(=O)N[C@@H](CC(=O)O)C(=O)N[C@@H](CCCCN)C(=O)N[C@@H](CC(=O)O)C(=O)N[C@@H](CCCCN)C(=O)N[C@@H](CC(=O)O)C(=O)N[C@@H](CC(N)=O)C(=O)N[C@H](C(=O)N[C@@H](C)C(=O)N1CCC[C@H]1C(=O)N[C@@H](CCCNC(=N)N)C(=O)N[C@@H](CO)C(=O)N[C@@H](CCCCN)C(=O)N[C@H](C(=O)N[C@@H](CO)C(=O)N1CCC[C@H]1C(=O)N[C@@H](CCC(N)=O)C(=O)NCC(=O)N[C@@H](Cc1ccc(O)cc1)C(N)=O)[C@@H](C)CC)C(C)C)[C@@H](C)O` [Example 1, ((2S,5S,11S,14S,23S)-23-(2-(2-aminoacetamido)acetamido)-5-benzyl-2-(3-guanidinopropyl)-11-((R)-1-hydroxyethyl)-3,6,9,12,20,24-hexaoxo-1,4,7,10,13,19-hexaazacyclotetracosane-14-carbonyl)-L-threonyl-ADM(22-52)] (H-GGERFGTKTVQKLAHQIYQFTDKDKDNVAPRSKISPQGY-NH2; lactam 3-8), the EC50 (commonly the concentration that produces a half-maximal response) came out at 31 nM.
`CC[C@H](C)[C@H](NC(=O)[C@H](CCC(N)=O)NC(=O)[C@H](Cc1c[nH]cn1)NC(=O)[C@H](C)NC(=O)[C@H](CC(C)C)NC(=O)[C@H](CCCCN)NC(=O)[C@H](CCC(N)=O)NC(=O)[C@@H](NC(=O)[C@@H](NC(=O)[C@@H]1CC(=O)NC[C@H](NC(=O)CNC(=O)CN)C(=O)N[C@@H](CCCNC(=N)N)C(=O)N[C@@H](Cc2ccccc2)C(=O)NCC(=O)N[C@@H]([C@@H](C)O)C(=O)N1)[C@@H](C)O)C(C)C)C(=O)N[C@@H](Cc1ccc(O)cc1)C(=O)N[C@@H](CCC(N)=O)C(=O)N[C@@H](Cc1ccccc1)C(=O)N[C@H](C(=O)N[C@@H](CC(=O)O)C(=O)N[C@@H](CCCCN)C(=O)N[C@@H](CC(=O)O)C(=O)N[C@@H](CCCCN)C(=O)N[C@@H](CC(=O)O)C(=O)N[C@@H](CC(N)=O)C(=O)N[C@H](C(=O)N[C@@H](C)C(=O)N1CCC[C@H]1C(=O)N[C@@H](CCCNC(=N)N)C(=O)N[C@@H](CO)C(=O)N[C@@H](CCCCN)C(=O)N[C@H](C(=O)N[C@@H](CO)C(=O)N1CCC[C@H]1C(=O)N[C@@H](CCC(N)=O)C(=O)NCC(=O)N[C@@H](Cc1ccc(O)cc1)C(N)=O)[C@@H](C)CC)C(C)C)[C@@H](C)O` [Example 3, ((2S,5S,11S,14S,19S)-19-(2-(2-aminoacetamido)acetamido)-5-benzyl-2-(3-guanidinopropyl)-11-((R)-1-hydroxyethyl)-3,6,9,12,16,20-hexaoxo-1,4,7,10,13,17-hexaazacycloicosane-14-carbonyl)-L-threonyl-ADM(22-52)] (H-GG[Dap]RFGTDTVQKLAHQIYQFTDKDKDNVAPRSKISPQGY-NH2; lactam 3-8) returned an EC50 of 67 nM.
For `CC[C@H](C)[C@H](NC(=O)[C@H](CCC(N)=O)NC(=O)[C@H](Cc1c[nH]cn1)NC(=O)[C@H](C)NC(=O)[C@H](CC(C)C)NC(=O)[C@H](CCCCN)NC(=O)[C@H](CCC(N)=O)NC(=O)[C@@H](NC(=O)[C@@H](NC(=O)[C@@H]1CCNC(=O)C[C@H](NC(=O)CNC(=O)CN)C(=O)N[C@@H](CCCNC(=N)N)C(=O)N[C@@H](Cc2ccccc2)C(=O)NCC(=O)N[C@@H]([C@@H](C)O)C(=O)N1)[C@@H](C)O)C(C)C)C(=O)N[C@@H](Cc1ccc(O)cc1)C(=O)N[C@@H](CCC(N)=O)C(=O)N[C@@H](Cc1ccccc1)C(=O)N[C@H](C(=O)N[C@@H](CC(=O)O)C(=O)N[C@@H](CCCCN)C(=O)N[C@@H](CC(=O)O)C(=O)N[C@@H](CCCCN)C(=O)N[C@@H](CC(=O)O)C(=O)N[C@@H](CC(N)=O)C(=O)N[C@H](C(=O)N[C@@H](C)C(=O)N1CCC[C@H]1C(=O)N[C@@H](CCCNC(=N)N)C(=O)N[C@@H](CO)C(=O)N[C@@H](CCCCN)C(=O)N[C@H](C(=O)N[C@@H](CO)C(=O)N1CCC[C@H]1C(=O)N[C@@H](CCC(N)=O)C(=O)NCC(=O)N[C@@H](Cc1ccc(O)cc1)C(N)=O)[C@@H](C)CC)C(C)C)[C@@H](C)O` [Example 4, ((2S,5S,11S,14S,20S)-20-(2-(2-aminoacetamido)acetamido)-5-benzyl-2-(3-guanidinopropyl)-11-((R)-1-hydroxyethyl)-3,6,9,12,18,21-hexaoxo-1,4,7,10,13,17-hexaazacyclohenicosane-14-carbonyl)-L-threonyl-ADM(22-52)] (H-GGDRFGT[Dab]TVQKLAHQIYQFTDKDKDNVAPRSKISPQGY-NH2; lactam 3-8), the midpoint of the response, the EC50, lay at 21 nM.
The figure for `CC[C@H](C)[C@H](NC(=O)[C@H](CCC(N)=O)NC(=O)[C@H](Cc1c[nH]cn1)NC(=O)[C@H](C)NC(=O)[C@H](CC(C)C)NC(=O)[C@H](CCCCN)NC(=O)[C@H](CCC(N)=O)NC(=O)[C@@H](NC(=O)[C@@H](NC(=O)[C@@H]1CCC(=O)NC[C@H](NC(=O)CNC(=O)CN)C(=O)N[C@@H](CCCNC(=N)N)C(=O)N[C@@H](Cc2ccccc2)C(=O)NCC(=O)N[C@@H]([C@@H](C)O)C(=O)N1)[C@@H](C)O)C(C)C)C(=O)N[C@@H](Cc1ccc(O)cc1)C(=O)N[C@@H](CCC(N)=O)C(=O)N[C@@H](Cc1ccccc1)C(=O)N[C@H](C(=O)N[C@@H](CC(=O)O)C(=O)N[C@@H](CCCCN)C(=O)N[C@@H](CC(=O)O)C(=O)N[C@@H](CCCCN)C(=O)N[C@@H](CC(=O)O)C(=O)N[C@@H](CC(N)=O)C(=O)N[C@H](C(=O)N[C@@H](C)C(=O)N1CCC[C@H]1C(=O)N[C@@H](CCCNC(=N)N)C(=O)N[C@@H](CO)C(=O)N[C@@H](CCCCN)C(=O)N[C@H](C(=O)N[C@@H](CO)C(=O)N1CCC[C@H]1C(=O)N[C@@H](CCC(N)=O)C(=O)NCC(=O)N[C@@H](Cc1ccc(O)cc1)C(N)=O)[C@@H](C)CC)C(C)C)[C@@H](C)O` [Example 7, ((3S,9S,12S,15S,21S)-15-(2-(2-aminoacetamido)acetamido)-9-benzyl-12-(3-guanidinopropyl)-3-((R)-1-hydroxyethyl)-2,5,8,11,14,18-hexaoxo-1,4,7,10,13,17-hexaazacyclohenicosane-21-carbonyl)-L-threonyl-ADM(22-52)] (H-GG[Dap]RFGTETVQKLAHQIYQFTDKDKDNVAPRSKISPQGY-NH2; lactam 3-8) is 2.9 nM.

Values taken from patent US20180022780A1, “STABILIZATION ADRENOMEDULLIN DERIVATIVES AND USE THEREOF” (priority 2014, published 2018).
